Among the data in patent publication US8999981B2, “3-amido-pyrrolo[3,4-C]pyrazole-5(1H, 4H,6H) carbaldehyde derivatives” (Pfizer Inc., priority 2007, dated 2015) are Ki values, retold here.

Chain of Protein Kinase C beta 2 (PKCβII) (P05771 other isoform, or with tags, fused parts or gaps): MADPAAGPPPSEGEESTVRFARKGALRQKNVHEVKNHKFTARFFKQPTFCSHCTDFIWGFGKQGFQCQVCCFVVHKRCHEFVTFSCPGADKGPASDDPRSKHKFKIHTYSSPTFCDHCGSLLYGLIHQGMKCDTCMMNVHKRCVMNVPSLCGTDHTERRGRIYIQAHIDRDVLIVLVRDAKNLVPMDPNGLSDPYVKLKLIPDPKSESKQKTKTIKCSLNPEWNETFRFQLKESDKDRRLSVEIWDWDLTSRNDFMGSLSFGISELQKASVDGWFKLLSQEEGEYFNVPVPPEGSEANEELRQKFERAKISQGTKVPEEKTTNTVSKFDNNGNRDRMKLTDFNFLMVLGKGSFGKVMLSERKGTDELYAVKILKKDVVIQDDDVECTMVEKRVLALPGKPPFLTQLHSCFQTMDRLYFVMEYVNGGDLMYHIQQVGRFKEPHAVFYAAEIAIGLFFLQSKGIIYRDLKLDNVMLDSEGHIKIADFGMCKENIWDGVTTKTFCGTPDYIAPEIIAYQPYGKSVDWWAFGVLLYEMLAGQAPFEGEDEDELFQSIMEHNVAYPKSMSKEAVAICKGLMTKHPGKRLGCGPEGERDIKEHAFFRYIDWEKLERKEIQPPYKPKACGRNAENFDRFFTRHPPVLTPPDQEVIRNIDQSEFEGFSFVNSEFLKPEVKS

The target in this assay is Protein Kinase C beta 2 (PKCβII) (Homo sapiens (Human), UniProt P05771). Briefly: PKCβII coupled PK/LDH spectrophotometric kinase assay. In kind it is biochemical. The note with it: apparent Ki, ATP-competitive model (Morrison equation); 0.1 mM ATP, 30° C.; read-out: PKCb Ki. As for the experimental part:
This transfer is coupled to the oxidation of β-NADH through the activities of Pyruvate Kinase (PK) and Lactate Dehydrogenase (LDH). β-NADH conversion to NAD+ is monitored by the decrease in absorbance at 340 nm (e=6.22 cm^−1 mM^−1) using a Molecular Devices SPECTRA max PLUS spectrophotometer.
A typical assay was carried out on a 96-well, clear microtiter plate in a Molecular Devices spectrophotometer for 20 minutes at 30° C. in 0.1 mL of assay buffer containing 50 mM HEPES, pH 7.4, 5 nM PKC, 23 units of pyruvate kinase, 33 units of lactate dehydrogenase, 0.15 mM peptide, 0.1 mM ATP, 1 mM DTT, 4 mM PEP, 8 mM MgCl2, 0.3 mM NADH, 60 mM CaCl2, 10 mg/mL PS, 50 ng/mL PMA, 7.5% DMSO and from about 10,000 nM to 0.169 nM compound inhibitor. Stock solutions of 3-sn-phosphatidyl-L-serine (PS) and phorbol-12-myristate-13-acetate (PMA) were sonicated for 30 seconds just prior to addition to assay buffer and assays were initiated by the addition of 100 μM ATP.
Enzyme turnover values (kcat) were calculated according to […], where [E] is the total enzyme concentration. Enzyme inhibition constants (apparent K values) were determined by fitting initial velocities at variable inhibitor concentrations to a model for ATP competitive inhibition based on the Morrison equation). Morrison, J. F., Biochim. Biophys Acta 185: 269-286 (1969).
As for `COc1cc(C(=O)Nc2n[nH]c3c2CN(C(=O)N2C[C@@H]4CCCN4C[C@@H]2C)C3(C)C)nc(OC)n1` [Example A59], the Ki came to 94.5 nM.

In the case of `C[C@H]1CN2CCC[C@H]2CN1C(=O)N1Cc2c(NC(=O)c3cccc(C#N)c3)n[nH]c2C1(C)C` [Example A60], the Ki is 17.1 nM.

On to `CCc1ccc(C(=O)Nc2n[nH]c3c2CN(C(=O)N2C[C@@H]4CCCN4C[C@@H]2C)C3(C)C)cc1` [Example A61], for which the Ki came out at 23.8 nM.

For the molecule `Cc1cc(C(=O)Nc2n[nH]c3c2CN(C(=O)N2C[C@@H]4CCCN4C[C@@H]2C)C3(C)C)ccc1F` [Example A62], the Ki amounted to 50.8 nM.

Take `C[C@H]1CN2CCC[C@H]2CN1C(=O)N1Cc2c(NC(=O)c3cccc(F)c3F)n[nH]c2C1(C)C` [Example A63]: the Ki is 65.4 nM.

In the case of `C[C@H]1CN2CCC[C@H]2CN1C(=O)N1Cc2c(NC(=O)c3ccc4c(c3)CCO4)n[nH]c2C1(C)C` [Example A64], the Ki was found to be 15.9 nM.

Consider `Cc1cccc(C(=O)Nc2n[nH]c3c2CN(C(=O)N2C[C@@H]4CCCN4C[C@@H]2C)C3(C)C)c1` [Example A65], for which the Ki was determined as 54.5 nM.

With `C[C@H]1CN2CCC[C@H]2CN1C(=O)N1Cc2c(NC(=O)c3ccc(C#N)cc3F)n[nH]c2C1(C)C` [Example A66], the Ki was 122 nM.

As for `C[C@H]1CN2CCC[C@H]2CN1C(=O)N1Cc2c(NC(=O)c3ccc(Cl)cn3)n[nH]c2C1(C)C` [Example A67], the Ki worked out at 24.3 nM.

For the molecule `C[C@H]1CN2CCC[C@H]2CN1C(=O)N1Cc2c(NC(=O)c3cc(Cl)ccn3)n[nH]c2C1(C)C` [Example A68], the Ki came out at 21.3 nM.

For `CC[C@H]1CN2CCC[C@H]2CN1C(=O)N1Cc2c(NC(=O)c3ccccc3)n[nH]c2C1(C)C` [Example A69], the Ki was determined as 67.8 nM.

For the molecule `CC[C@H]1CN2CCC[C@H]2CN1C(=O)N1Cc2c(NC(=O)c3ccccn3)n[nH]c2C1(C)C` [Example A70], the Ki amounted to 46.2 nM.

For the molecule `CC[C@H]1CN2CCC[C@H]2CN1C(=O)N1Cc2c(NC(=O)c3cccc(Cl)c3)n[nH]c2C1(C)C` [Example A71], the Ki is 49.9 nM.

With `CC[C@H]1CN2CCC[C@H]2CN1C(=O)N1Cc2c(NC(=O)c3ccccc3F)n[nH]c2C1(C)C` [Example A72], the Ki was determined as 105 nM.

As for `CC[C@H]1CN2CCC[C@H]2CN1C(=O)N1Cc2c(NC(=O)c3ccc(F)cc3)n[nH]c2C1(C)C` [Example A73], the Ki was 115 nM.

Turning to `C[C@H]1CN2CCC[C@H]2CN1C(=O)N1Cc2c(NC(=O)c3nc(Cl)c(Cl)s3)n[nH]c2C1(C)C` [Example A74], the Ki worked out at 10.4 nM.

Take `Cc1cc(C(=O)Nc2n[nH]c3c2CN(C(=O)N2C[C@@H]4CCCN4C[C@@H]2C)C3(C)C)nc(C)n1` [Example A75]: the Ki was 56.9 nM.

`C[C@H]1CN2CCC[C@H]2CN1C(=O)N1Cc2c(NC(=O)c3cc4cccn4cn3)n[nH]c2C1(C)C` [Example A76]: the Ki worked out at 13.9 nM.

As for `C[C@H]1CN2CCC[C@@H]2CN1C(=O)N1Cc2c(NC(=O)c3ccccn3)n[nH]c2C1(C)C` [Example A77], the Ki is 77.8 nM.

As for `CC1(C)c2[nH]nc(NC(=O)c3ccccn3)c2CN1C(=O)N1C[C@@H]2CCCN2C[C@@H]1CO` [Example A78], the Ki was found to be 165 nM.

As to `CCC1CN(C(=O)N2Cc3c(NC(=O)c4ccccn4)n[nH]c3C2(C)C)CCN1C` (stereo not shown) [Example A79], the Ki was found to be 79.6 nM.

As to `CC[C@H](C)[C@H]1CN2CCC[C@@H]2CN1C(=O)N1Cc2c(NC(=O)c3ccccn3)n[nH]c2C1(C)C` [Example A80], the Ki came out at 129 nM.

For the molecule `CC1(C)CN2CCC[C@H]2CN1C(=O)N1Cc2c(NC(=O)c3ccccn3)n[nH]c2C1(C)C` [Example A81], the Ki came to 125 nM.

Consider `CC1(C)CN2CCC[C@H]2CN1C(=O)N1Cc2c(NC(=O)c3ccccn3)n[nH]c2C1(C)C` [Example A82], for which the Ki turned out to be 81.8 nM.

For `CCCN1C[C@H](C)N(C(=O)N2Cc3c(NC(=O)c4ccccn4)n[nH]c3C2(C)C)C[C@H]1CCO` [Example A83], the Ki came to 9.53 nM.

For `CC[C@H](C)[C@H]1CN2C[C@H](O)C[C@H]2CN1C(=O)N1Cc2c(NC(=O)c3ccccn3)n[nH]c2C1(C)C` [Example A84], the Ki was 139 nM.

As for `CC[C@H](C)[C@H]1CN2C[C@H](O)C[C@H]2CN1C(=O)N1Cc2c(NC(=O)c3ccccn3)n[nH]c2C1(C)C` [Example A85], the Ki is 15.2 nM.

On to `CCC1(C)c2[nH]nc(NC(=O)c3ncc(F)cc3F)c2CN1C(=O)C1C[C@@H]2CCCN2C[C@@H]1C` (stereo partly shown) [Example A86], for which the Ki was found to be 74.1 nM.

For the molecule `C[C@H]1CN2CCC[C@H]2CN1C(=O)N1Cc2c(NC(=O)c3cc(N(C)C)ccn3)n[nH]c2C1(C)C` [Example A87], the Ki is 32.3 nM.

For `C[C@H]1CN2CCC[C@H]2CN1C(=O)N1Cc2c(NC(=O)c3ccc4ccccc4n3)n[nH]c2C1(C)C` [Example A88], the Ki is 17.8 nM.

With `C=CCN1C[C@H](C)N(C(=O)N2Cc3c(NC(=O)c4ccccn4)n[nH]c3C2(C)C)C[C@H]1C` [Example A89], the Ki was found to be 15.7 nM.

For the molecule `CC[C@H]1CN2CCC[C@@H]2CN1C(=O)N1Cc2c(CC(=O)c3ccccn3)n[nH]c2C1(C)C` [Example A90], the Ki came out at 107 nM.

As to `C[C@H]1CN2CCC[C@H]2CN1C(=O)N1Cc2c(NC(=O)c3ccc(Br)cn3)n[nH]c2C1(C)C` [Example A91], the Ki is 20.3 nM.

Consider `C[C@H]1CN2CCC[C@H]2CN1C(=O)N1Cc2c(NC(=O)c3ccc(F)cn3)n[nH]c2C1(C)C` [Example A92], for which the Ki came to 20.3 nM.

For `COCCN1C[C@H](C)N(C(=O)N2Cc3c(NC(=O)c4ccccn4)n[nH]c3C2(C)C)C[C@H]1C` [Example A93], the Ki stood at 63.6 nM.

As to `CCN1C[C@H](C)N(C(=O)N2Cc3c(NC(=O)c4ccccn4)n[nH]c3C2(C)C)C[C@H]1C` [Example A95], the Ki amounted to 9.11 nM.

With `CC1CN(C(=O)N2Cc3c(NC(=O)c4ccccn4)n[nH]c3C2(C)C)C(C)CN1CCCO` (stereo not shown) [Example A99], the Ki is 19.9 nM.

Consider `CC(C)[C@H]1CN2CCC[C@H]2CN1C(=O)N1Cc2c(NC(=O)c3ccccn3)n[nH]c2C1(C)C` [Example A100], for which the Ki was 14.1 nM.

`CC(C)[C@H]1CN2CCC[C@H]2CN1C(=O)N1Cc2c(NC(=O)c3ccc(F)cc3F)n[nH]c2C1(C)C` [Example A101]: the Ki was 148 nM.

Consider `CCCN1C[C@H](C)N(C(=O)N2Cc3c(NC(=O)c4ccc(F)cc4F)n[nH]c3C2(C)C)C[C@H]1CCO` [Example A102], for which the Ki turned out to be 45.9 nM.

Take `C[C@H]1CN2CCC[C@H]2CC1C(=O)N1Cc2c(NC(=O)c3csc(Br)n3)n[nH]c2C1(C)C` (stereo partly shown) [Example A103]: the Ki worked out at 12.9 nM.

In the case of `C[C@H]1CN2C[C@H]3CC3[C@H]2CN1C(=O)N1Cc2c(NC(=O)c3ccccn3)n[nH]c2C1(C)C` (stereo partly shown) [Example A104], the Ki stood at 83.7 nM.

In the case of `C[C@H]1CN2C[C@@H](F)C[C@H]2CN1C(=O)N1Cc2c(NC(=O)c3ccccn3)n[nH]c2C1(C)C` [Example A105], the Ki worked out at 109 nM.

`C[C@H]1CN2CCC[C@H]2CN1C(=O)N1Cc2c(NC(=O)C3CCCCO3)n[nH]c2C1(C)C` (stereo partly shown) [Example A112]: the Ki was found to be 186 nM.

Take `C[C@@H]1CN(C(=O)N2Cc3c(NC(=O)c4ccccn4)n[nH]c3C2(C)C)[C@@H](C)CN1C` [Example A113]: the Ki stood at 13.9 nM.

Take `C[C@H]1CN(C)C(C)(C)CN1C(=O)N1Cc2c(NC(=O)c3ccc(F)cc3F)n[nH]c2C1(C)C` [Example A114]: the Ki worked out at 87.1 nM.
